We go through one compound from US20210355435A1, “CULTURE MEDIUM COMPRISING KETO ACIDS” (Evonik Operations GmbH, priority 2018, published 2021).

SMILES strings stand for the structures.

The test system of test [1] is CHO cells (subclone DG44). The experiment in a line: Growth of CHO cells in medium with keto leucine instead of L-leucine. The class given is cell-based, Chinese hamster. The settings on record: keto leucine as calcium salt instead of L-leucine, up to 178 mg/l, third passage. On the procedure: (§1) Antibody producing chinese hamster ovary (CHO) cells (subclone DG44) were cultivated in shake flasks (125 ml or 250 ml with a culture volume of 50 ml or 100 ml respectively) in TC42/CHOMACS CD culture medium (TeutoCell AG) containing 8 mM L-glutamine. The culture medium was prepared by mixing two solutions. The first contained the conventional medium formulation (containing L-leucine and calcium chloride). In the second, the amino acid L-leucine in the culture medium was substituted by keto leucine (178 mg/l) as calcium salt in equimolar quantities. These solutions were mixed in different ratios. The growth of cells cultivated in the different mixtures was compared to cells cultivated in the conventional culture medium.
A corresponds to cells cultivated in a culture medium containing 178 mg/L of keto leucine, B to a mixture containing 30% (v/v) of the keto leucine solution, C to a mixture containing 5% (v/v) of the keto leucine solution and a reference containing only L-leucine.

The subject of test [2] is CHO cells (subclone DG44). As to the kind of experiment: Antibody production in CHO cells with keto leucine instead of L-leucine. The settings on record: keto leucine as calcium salt, reference normalized to 1.0. The class given is cell-based, Chinese hamster. Here is the method: as §1
The concentration of antibody produced by the cells cultivated in the reference culture medium containing L-leucine (Reference) were normalized to 1.0.

On to `CC(C)CC(=O)C(=O)O` [keto leucine, alpha-keto isocaproate], for which the “viable cell density versus reference medium with L-leucine” value in test [1] was “slightly reduced”. For the same compound, the “antibody production with keto leucine instead of L-leucine” value in test [2] was “L-leucine can be substituted”.
